In brackets after ≈: the same amount, converted by molar mass. Read-outs that look alike come from different tables or passages of the source. Values belong to the compound of their own block, whether it stands above or below them.
Key:
CYP3A4 [1] = target: T1, CYP3A4 (Homo sapiens, UniProt P08684); conditions: data on file
[2] = cited from earlier work
[3] = Clinical drug-drug interaction studies; format: in vivo, human
[4] = PBPK drug-drug interaction simulations; design: species or system human
CYP2B6 = conditions: source cell empty, row above: ref GastroPlus user manual[10]; cited from earlier work
CYP3A4 [5] = conditions: ref GastroPlus user manual[10], cited from earlier work
CYP3A4 [6] = target: T1, CYP3A4; format: in vitro ADME; conditions: percent compound remaining after 60 min in presence of NADPH
OATP1B3 = target: T2, OATP1B3 (Homo sapiens, UniProt Q9NPD5); experiment: OATP1B3 inhibition; format: in vitro ADME
T2 sequence (Q9NPD5 1-702): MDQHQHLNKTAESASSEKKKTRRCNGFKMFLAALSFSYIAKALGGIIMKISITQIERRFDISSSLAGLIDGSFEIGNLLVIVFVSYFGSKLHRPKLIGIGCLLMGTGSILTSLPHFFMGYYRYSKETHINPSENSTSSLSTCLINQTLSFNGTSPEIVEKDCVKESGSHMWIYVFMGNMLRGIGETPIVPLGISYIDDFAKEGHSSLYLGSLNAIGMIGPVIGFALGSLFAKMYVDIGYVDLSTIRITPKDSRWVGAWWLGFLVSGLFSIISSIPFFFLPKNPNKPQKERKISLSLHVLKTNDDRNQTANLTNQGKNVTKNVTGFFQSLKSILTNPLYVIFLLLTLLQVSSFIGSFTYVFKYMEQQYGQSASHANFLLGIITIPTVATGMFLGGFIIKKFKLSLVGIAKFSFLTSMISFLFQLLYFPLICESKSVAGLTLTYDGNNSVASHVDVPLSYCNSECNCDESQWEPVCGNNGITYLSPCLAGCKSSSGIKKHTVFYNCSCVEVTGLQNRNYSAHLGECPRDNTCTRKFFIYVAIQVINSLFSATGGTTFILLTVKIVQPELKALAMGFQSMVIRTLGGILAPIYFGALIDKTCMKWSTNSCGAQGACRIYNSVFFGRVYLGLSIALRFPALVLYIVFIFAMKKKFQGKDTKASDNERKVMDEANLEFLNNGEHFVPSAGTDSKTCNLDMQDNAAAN

[7] = Physicochemical input parameters
[8] = cited from earlier work; remark: listed apart in the source
P-gp = P-gp (Homo sapiens, UniProt P08183); experiment: P-gp inhibition in P-gp-transfected cell monolayers; format: in vitro ADME
Sequence of P-gp (P08183 whole entry): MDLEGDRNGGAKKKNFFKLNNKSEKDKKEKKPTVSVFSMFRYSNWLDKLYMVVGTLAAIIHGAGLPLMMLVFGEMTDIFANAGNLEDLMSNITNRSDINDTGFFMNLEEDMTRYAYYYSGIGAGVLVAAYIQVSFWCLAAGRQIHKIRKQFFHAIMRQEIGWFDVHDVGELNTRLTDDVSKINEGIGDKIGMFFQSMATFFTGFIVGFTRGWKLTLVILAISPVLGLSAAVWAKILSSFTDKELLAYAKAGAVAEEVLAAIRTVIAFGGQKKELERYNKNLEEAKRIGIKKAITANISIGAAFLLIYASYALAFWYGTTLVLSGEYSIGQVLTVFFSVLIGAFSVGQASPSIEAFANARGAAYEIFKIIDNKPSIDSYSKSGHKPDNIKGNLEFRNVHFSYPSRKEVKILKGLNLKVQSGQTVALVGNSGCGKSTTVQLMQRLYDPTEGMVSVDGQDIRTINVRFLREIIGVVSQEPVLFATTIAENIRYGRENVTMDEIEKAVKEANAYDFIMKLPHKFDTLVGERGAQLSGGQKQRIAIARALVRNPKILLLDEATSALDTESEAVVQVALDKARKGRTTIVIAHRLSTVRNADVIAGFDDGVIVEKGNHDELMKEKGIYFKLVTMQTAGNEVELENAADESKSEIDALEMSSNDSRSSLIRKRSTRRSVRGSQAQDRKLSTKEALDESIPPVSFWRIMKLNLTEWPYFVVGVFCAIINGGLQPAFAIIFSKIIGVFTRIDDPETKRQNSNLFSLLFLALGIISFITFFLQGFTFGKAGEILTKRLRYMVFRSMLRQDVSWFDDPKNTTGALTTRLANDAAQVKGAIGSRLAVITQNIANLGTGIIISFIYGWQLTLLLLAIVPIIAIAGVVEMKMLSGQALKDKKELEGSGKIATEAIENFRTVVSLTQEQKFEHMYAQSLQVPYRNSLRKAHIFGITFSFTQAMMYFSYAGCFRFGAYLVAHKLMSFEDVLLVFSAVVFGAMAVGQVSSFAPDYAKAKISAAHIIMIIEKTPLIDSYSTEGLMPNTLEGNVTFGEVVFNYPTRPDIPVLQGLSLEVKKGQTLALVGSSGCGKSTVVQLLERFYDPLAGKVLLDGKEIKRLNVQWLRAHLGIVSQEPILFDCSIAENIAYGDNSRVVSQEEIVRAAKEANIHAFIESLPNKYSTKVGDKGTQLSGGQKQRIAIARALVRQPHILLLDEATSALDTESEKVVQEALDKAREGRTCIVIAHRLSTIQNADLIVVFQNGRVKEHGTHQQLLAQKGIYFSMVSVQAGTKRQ

[9] = cited from earlier work; remark: listed apart in the source
[10] = Apparent permeability in Caco-2 cells; format: in vitro ADME; conditions: human
OATP1B1 = target: T3, OATP1B1 (Homo sapiens, UniProt Q9Y6L6); experiment: OATP1B1 inhibition; format: in vitro ADME
T3 sequence (Q9Y6L6 1-691): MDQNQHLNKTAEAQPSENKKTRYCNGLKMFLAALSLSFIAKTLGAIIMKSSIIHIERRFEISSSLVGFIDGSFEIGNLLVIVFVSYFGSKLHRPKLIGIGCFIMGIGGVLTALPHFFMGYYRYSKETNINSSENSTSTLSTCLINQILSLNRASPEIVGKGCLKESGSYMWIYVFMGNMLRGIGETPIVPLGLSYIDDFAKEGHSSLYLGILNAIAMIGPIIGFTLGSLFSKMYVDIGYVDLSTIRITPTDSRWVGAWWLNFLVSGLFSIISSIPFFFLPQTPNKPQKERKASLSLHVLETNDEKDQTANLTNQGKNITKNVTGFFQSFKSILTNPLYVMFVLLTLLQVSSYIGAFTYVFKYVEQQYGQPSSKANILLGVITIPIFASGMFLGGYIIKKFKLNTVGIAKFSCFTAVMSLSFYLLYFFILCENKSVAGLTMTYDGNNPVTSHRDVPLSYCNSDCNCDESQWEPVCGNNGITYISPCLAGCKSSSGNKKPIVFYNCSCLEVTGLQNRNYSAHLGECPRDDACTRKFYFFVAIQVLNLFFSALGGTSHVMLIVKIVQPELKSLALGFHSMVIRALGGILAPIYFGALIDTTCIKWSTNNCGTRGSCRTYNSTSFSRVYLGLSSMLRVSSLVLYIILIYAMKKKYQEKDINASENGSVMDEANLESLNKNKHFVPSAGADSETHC

PBPK model = conditions: human, oral, 600 mg
CYP2C8 = target: T4, CYP2C8 (Homo sapiens, UniProt P10632); experiment: CYP2C8 inhibition; format: in vitro ADME
T4 sequence (P10632 1-490): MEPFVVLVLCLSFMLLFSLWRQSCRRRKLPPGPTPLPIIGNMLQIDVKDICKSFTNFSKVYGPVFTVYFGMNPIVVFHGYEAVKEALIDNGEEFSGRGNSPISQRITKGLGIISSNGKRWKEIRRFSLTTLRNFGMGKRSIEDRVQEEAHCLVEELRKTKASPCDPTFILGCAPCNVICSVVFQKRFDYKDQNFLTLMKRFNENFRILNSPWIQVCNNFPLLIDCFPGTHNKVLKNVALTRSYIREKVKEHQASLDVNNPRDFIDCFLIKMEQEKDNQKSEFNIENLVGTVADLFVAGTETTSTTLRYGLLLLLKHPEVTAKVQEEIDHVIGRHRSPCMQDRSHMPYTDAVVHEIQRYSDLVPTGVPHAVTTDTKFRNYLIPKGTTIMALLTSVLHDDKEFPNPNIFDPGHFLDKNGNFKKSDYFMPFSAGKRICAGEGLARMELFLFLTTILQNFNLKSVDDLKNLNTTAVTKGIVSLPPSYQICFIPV

CYP3A4 [11] = target: T1, CYP3A4; experiment: biochemical; format: in vitro ADME
BCRP = target: T5, BCRP (Homo sapiens, UniProt Q9UNQ0); experiment: BCRP inhibition in BCRP-transfected cell monolayers; format: in vitro ADME
T5 sequence (Q9UNQ0 1-655): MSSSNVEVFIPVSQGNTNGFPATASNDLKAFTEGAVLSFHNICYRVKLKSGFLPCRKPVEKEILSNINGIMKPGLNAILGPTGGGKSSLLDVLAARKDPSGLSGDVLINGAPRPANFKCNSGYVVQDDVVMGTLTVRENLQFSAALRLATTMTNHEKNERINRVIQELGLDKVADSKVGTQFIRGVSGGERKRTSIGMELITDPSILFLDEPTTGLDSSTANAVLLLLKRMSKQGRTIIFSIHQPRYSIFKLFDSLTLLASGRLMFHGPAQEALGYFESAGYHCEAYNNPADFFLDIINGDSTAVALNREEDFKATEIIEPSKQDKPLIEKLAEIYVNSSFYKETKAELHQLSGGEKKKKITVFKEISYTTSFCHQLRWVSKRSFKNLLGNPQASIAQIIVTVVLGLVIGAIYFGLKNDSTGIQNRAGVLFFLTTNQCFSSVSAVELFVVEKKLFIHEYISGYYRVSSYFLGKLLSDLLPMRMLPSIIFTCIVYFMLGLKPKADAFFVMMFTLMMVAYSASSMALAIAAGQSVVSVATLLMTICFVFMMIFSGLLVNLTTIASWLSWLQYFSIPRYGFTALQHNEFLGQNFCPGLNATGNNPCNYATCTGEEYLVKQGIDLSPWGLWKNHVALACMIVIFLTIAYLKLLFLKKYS

CYP2C9 = CYP2C9 (Homo sapiens, UniProt P11712); experiment: CYP2C9 inhibition; format: in vitro ADME
Sequence of CYP2C9 (P11712 whole entry, canonical isoform): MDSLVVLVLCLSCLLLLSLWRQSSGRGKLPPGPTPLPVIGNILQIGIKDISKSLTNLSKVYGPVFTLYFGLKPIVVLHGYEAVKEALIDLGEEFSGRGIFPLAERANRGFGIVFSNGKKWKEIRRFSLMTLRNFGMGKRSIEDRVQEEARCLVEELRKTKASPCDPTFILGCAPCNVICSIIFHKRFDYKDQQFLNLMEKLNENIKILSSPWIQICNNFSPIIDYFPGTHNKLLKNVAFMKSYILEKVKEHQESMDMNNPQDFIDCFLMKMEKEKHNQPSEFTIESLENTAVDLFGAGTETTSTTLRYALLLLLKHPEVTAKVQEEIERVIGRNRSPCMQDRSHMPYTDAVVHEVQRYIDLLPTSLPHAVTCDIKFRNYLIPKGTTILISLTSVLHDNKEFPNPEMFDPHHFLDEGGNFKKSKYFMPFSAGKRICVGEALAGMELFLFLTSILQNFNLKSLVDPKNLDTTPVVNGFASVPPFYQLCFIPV

other CYP isoforms = experiment: In vitro metabolism of [14C]-ziritaxestat by CYP isoforms; format: in vitro ADME; conditions: human, CYP isoforms other than CYP3A4, 60 min
[12] = pravastatin probe verification, interaction with gemfibrozil (OATP1B1 inhibitor)

T1 sequence (P08684 whole entry): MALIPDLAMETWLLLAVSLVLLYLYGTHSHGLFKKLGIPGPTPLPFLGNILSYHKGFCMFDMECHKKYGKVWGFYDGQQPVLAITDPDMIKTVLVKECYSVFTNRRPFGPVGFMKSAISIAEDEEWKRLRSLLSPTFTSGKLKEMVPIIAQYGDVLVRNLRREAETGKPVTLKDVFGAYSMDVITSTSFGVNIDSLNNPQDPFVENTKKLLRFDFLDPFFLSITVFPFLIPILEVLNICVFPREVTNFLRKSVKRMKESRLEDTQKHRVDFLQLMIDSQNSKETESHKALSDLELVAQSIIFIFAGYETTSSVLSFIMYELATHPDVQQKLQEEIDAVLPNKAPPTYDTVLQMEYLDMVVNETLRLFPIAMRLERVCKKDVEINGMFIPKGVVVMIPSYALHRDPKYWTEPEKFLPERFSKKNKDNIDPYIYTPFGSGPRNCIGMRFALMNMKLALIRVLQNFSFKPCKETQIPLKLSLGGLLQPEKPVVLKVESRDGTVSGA

SMILES: O=C1Nc2ccc(Cl)cc2[C@@](C#CC2CC2)(C(F)(F)F)O1 [Efavirenz]
Emax induction CYP2B6 (CYP2B6): 5.76

SMILES: CCc1nc2c(C)cc(N3CCN(CC(=O)N4CC(O)C4)CC3)cn2c1N(C)c1nc(-c2ccc(F)cc2)c(C#N)s1 [Ziritaxestat, ziritaxestat]
[14C]-ziritaxestat metabolized by CYP3A4 (CYP3A4 [6]; 10 μM): 84.5%
[14C]-ziritaxestat metabolized by CYP3A4 (CYP3A4 [6]; 100 μM): 28.6%
IC50 (OATP1B3): 7.04 µM
solubility ([7]; FaSSIF): 0.54 mg/mL (≈ 917 µM)
solubility ([7]; buffer, pH 7.5, aqueous buffer): 0.066 mg/mL (≈ 112 µM)
logD ([7]; octanol/water, pH 8.25): 3.81
pKa ([7]; pKa1 (base)): 4.99
pKa ([7]; pKa2 (base)): 5.89
fraction absorbed ([8]; 600 mg dose): at least 86%
hepatic first-pass metabolism [8]: 9%
volume of distribution at steady state from observed data, mean [SD] [8]: 23 [11] L
renal excretion of total radioactivity ([8]; single p.o. 600 mg [14C]-ziritaxestat, healthy male subjects): < 7%
IC50 (P-gp): > 40 µM
mortality (in words) ([9]; 200 mg and 600 mg daily doses vs placebo): increased mortality compared with placebo
efficacy in IPF (in words) ([9]; 200 mg and 600 mg daily doses): failed to demonstrate efficacy
Papp [10]: 470 nm/s
inhibitory potential for OATP1B1 (in words) (OATP1B1): weak
Papp (PBPK model): 1200 nm/s
Ki (CYP2C8): 0.753 µM
time-dependent inhibition of CYP2C8 (in words) (CYP2C8): strong
fraction unbound (CYP2C8; human): 0.52
IC50 (CYP3A4 [11]): 3.7 µM
classification as CYP3A4 substrate ([3]; human, in vivo): moderately sensitive CYP3A4 substrate
AUC0–∞ ratio, observed DDI ratio ([3]; ziritaxestat 600 mg SD with/without voriconazole 800 mg SD, data on file): 4.0
IC50 (BCRP): > 40 µM
IC50 (CYP2C9): 13.1 µM
fraction unbound (CYP2C9; human): 0.24
contribution of other CYP isoforms to metabolism (maximum) (other CYP isoforms): ≤ 2.1%

Now from value to compound, other results behind:

contribution of CYP3A4 to metabolism (CYP3A4 [1]): ~ 7%
increase in nintedanib exposure with ziritaxestat ([3]; clinical DDI study, data on file): approximately two‐fold
SMILES: COC(=O)c1ccc2c(c1)NC(=O)/C2=C(\Nc1ccc(N(C)C(=O)CN2CCN(C)CC2)cc1)c1ccccc1 [Nintedanib, nintedanib]
reduction of nintedanib exposure by pirfenidone [2]: 1.5 fold

observed-to-predicted AUC ratio [4, 12]: 1.03
observed-to-predicted Cmax ratio [4, 12]: 1.10
SMILES: CC[C@H](C)C(=O)O[C@H]1C[C@H](O)C=C2C=C[C@H](C)[C@H](CC[C@@H](O)C[C@@H](O)CC(=O)O)[C@H]21 [Pravastatin, pravastatin]

observed-to-predicted AUC ratio ([4]; efavirenz verification with ketoconazole as victim): 0.90
SMILES: CC(=O)N1CCN(c2ccc(OCC3COC(Cn4ccnc4)(c4ccc(Cl)cc4Cl)O3)cc2)CC1 (stereo not shown) [Ketoconazole]
